Reference: US10517889B2, “Modulators of SMAD7 expression” (Ionis Pharmaceuticals, Inc., priority 2017, dated 2019)

Key:
human SMAD7 mRNA = test: Antisense inhibition of human SMAD7 mRNA expression in Hep3B cells by 3-10-3 cEt gapmers, 10,000 nM, electroporation (Example 2); assay type: cell-based; conditions: Hep3B cells, electroporation with 10,000 nM antisense oligonucleotide, approximately 24 hours
How it was run: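 Hep3B cells (20,000/well) were electroporated with 10,000 nM 3-10-3 cEt gapmer (16-mer, phosphorothioate, 5-methylcytosines) and harvested after about 24 h. SMAD7 mRNA quantified by RT-qPCR with primer probe set RTS5062, normalized to total RNA by RiboGreen; percent inhibition relative to untreated cells.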

[1] = Plasma chemistry markers after subcutaneous administration in CD-1 mice (Example 6); assay type: in vivo; conditions: CD-1 mice plasma at day 46; 50 mg/kg subcutaneously twice a week for 7 weeks
Experimental: CD-1® mice (Charles River, Mass.) are a multipurpose mice model, frequently utilized for safety and efficacy testing. The mice were treated with Ionis human SMAD7 antisense oligonucleotides selected from studies described above and evaluated.
Groups of 8-9 week old male CD-1 mice were injected subcutaneously twice a week for 7 weeks with 50 mg/kg of Ionis oligonucleotides (100 mg/kg/week dose). Each group contained 4 mice. One group of male CD-1 mice was injected subcutaneously twice a week for 7 weeks with PBS. […]

[2] = Hematology assays after subcutaneous administration in CD-1 mice (Example 6); assay type: in vivo; parameters: RBC / Eosinophils / Monocytes: unit not given here; conditions: 50 mg/kg subcutaneous twice weekly for 7 weeks; for Basophils: n.d. = below detection levels
Experimental: Groups of 8-9 week old male CD-1 mice were injected subcutaneously twice a week for 7 weeks with 50 mg/kg of Ionis oligonucleotides (100 mg/kg/week dose). Each group contained 4 mice. One group of male CD-1 mice was injected subcutaneously twice a week for 7 weeks with PBS. Plasma was collected for analysis on day 28.
Blood obtained from all mouse groups was measured by an ADVIA2120i hematology analyzer (Siemens, USA) for measurements of the various blood cells, as well as other hematology markers.

[3] = Oligonucleotide concentrations in tissues by LC-MS/MS after oral gavage in CD-1 mice (Example 7); assay type: in vivo; conditions: 500 mg/kg oral gavage once daily for 4 weeks, 48 hours after last dose
Experimental: Groups of 7-8 week old male CD-1 mice were given an oral gavage dose once daily for 4 weeks of 500 mg/kg of Ionis SMAD7 oligonucleotides. Each group contained 8 mice. One group of male CD-1 mice was administered saline by oral gavage daily.
Oligonucleotide concentrations were detected in various tissues by LC-MS/MS analysis. The greatest concentration was found in the kidney, followed by the colon.

[4] = Hematology assays after subcutaneous administration in beagle dogs (Example 8); assay type: in vivo; conditions: 30 mg/kg subcutaneous days 1, 3, 5, 8, 15, 22, 29
Experimental: (§1) There were 4 animals per group.
Blood samples were collected from the cephalic vein or saphenous vein of each animal. About 0.5 mL of blood samples was put into tubes containing the potassium salt of EDTA. Blood obtained from all dog groups was measured using an ADVIA2120i hematology analyzer for measurements of the various blood cells, as well as other hematology markers.

dog SMAD7 mRNA = test: Pharmacology: dog SMAD7 mRNA expression in liver, kidney, duodenum, ileum and colon after subcutaneous administration in beagle dogs (Example 8); assay type: in vivo; conditions: 30 mg/kg subcutaneous, necropsy, normalized to HPRT1
Experimental: as §1
The pharmacological activity of the Ionis oligonucleotides in dogs was assessed by measuring dog SMAD7 mRNA expression in liver, kidney, duodenum, ileum, and colon at necropsy. All the human ASOs used are complementary to dog SMAD7 mRNA.
Tissue samples from all dogs were analyzed for SMAD7 mRNA expression using the primer probe set RTS34649 (forward sequence […], designated SEQ ID NO: 2740; reverse sequence […], designated SEQ ID NO: 2741; probe sequence […], designated SEQ ID NO: 2742), which was normalized to mRNA levels of the housekeeping gene, HPRT1. One-way ANOVA with Dunnet's comparison test was used for statistical analysis.

[5] = Plasma chemistry markers after oral gavage in beagle dogs (Example 12); conditions: 200 mg oral gavage for 4 weeks, plasma at day 30
Experimental: The study was conducted to evaluate the tolerability and pharmacodynamics of select human SMAD7 antisense oligonucleotides in beagle dogs following 4 weeks of treatment. The dogs were administered oligonucleotides by oral gavage.
Groups of 24-25 week old male beagle dogs were administered 200 mg Ionis human SMAD7 oligonucleotide by oral gavage once a week for 4 weeks. There were 4 animals per group. A control group of dogs received oral administration of distilled water. Dogs were sacrificed on day 30 approximately 48 hours after the final dose and organs and plasma were harvested for further analysis.
To evaluate the effect of Ionis SMAD7 oligonucleotides on liver and kidney function, approximately 1.5 mL of blood samples were collected and put into tubes without anticoagulant for serum separation. The tubes were kept at room temperature for a minimum of 90 min and then centrifuged (approximately 3,000 rpm for 10 min) to obtain serum. Plasma levels of transaminases, albumin, bilirubin, and BUN were measured using an automated clinical chemistry analyzer (Toshiba 200FR Neo chemistry analyzer, Toshiba Co., Japan).

[6] = SMAD7 mRNA by RT-PCR (RTS5062), relative to untreated control cells

For “829994 (GGAGGCAGGGCCGCGA; 3-10-3 cEt gapmer, further chemistry not given here) [compound 829994]”, the “% Inhibition” value (human SMAD7 mRNA; SMAD7 mRNA, primer probe set RTS5062, relative to untreated control cells) was 68%, the ALT [1] was 65 IU/L and the AST [1] was 90 IU/L. For the same substance, the Albumin [1] was 2.9 g/dL, the BUN [1] was 25 mg/dL and the Eosinophils [2] was 1.3. It also gave a Hematocrit [2] of 36.6%, a Hemoglobin [2] of 12.0 g/dL and a Lymphocytes [2] of 79.4%. It also gave an MCH [2] of 15.5 pg, an MCHC [2] of 32.7 g/dL and an MCV [2] of 47.3 fL. For the same substance, the Monocytes [2] was 3.0, the Neutrophils [2] was 16.4% and the RBC [2] was 7.7. The Reticulocytes [2] was 3.7%, the WBC [2] was 5.0 10^3/μL and the platelets [2] was 841.3 10^3/μL. The “Oligonucleotide concentration, Colon” value [3] was 5.7 µg/g, the “Oligonucleotide concentration, Duodenum” value [3] was 0.8 µg/g and the “Oligonucleotide concentration, Ileum” value [3] was 4.0 µg/g. The “Oligonucleotide concentration, Kidney” value [3] was 9.8 µg/g, the “Oligonucleotide concentration, Liver” value [3] was 1.3 µg/g and the Basophils [4] was 0.5%. For the same substance, the Eosinophils [4] was 1.8%, the Hematocrit [4] was 44% and the Hemoglobin [4] was 15.3 g/dL. The Lymphocytes [4] was 26%, the MCH [4] was 23.2 pg and the MCHC [4] was 35.1 g/dL. It also gave an MCV [4] of 66 fL, a Monocytes [4] of 6.3% and a Neutrophils [4] of 65%. For the same substance, the PLT [4] was 287 ^3/μL, the RBC [4] was 6.6 ^6/L and the Reticulocytes [4] was 0.9%. The WBC [4] was 12.5 ^3/μL, the “% inhibition of SMAD7 mRNA expression (compared to control), Distal colon” value (“% inhibition … Distal colon” for short) (dog SMAD7 mRNA) was 29% and the “% inhibition of SMAD7 mRNA expression (compared to control), Duodenum” value (“% inhibition of SMAD7 mRNA expression … Duodenum” for short) (dog SMAD7 mRNA) was 2%. For the same substance, the “% inhibition of SMAD7 mRNA expression (compared to control), Ileum” value (“% inhibition of SMAD7 mRNA expression … Ileum” for short) (dog SMAD7 mRNA) was 32%, the “% inhibition of Smad7 mRNA expression (compared to control), Kidney” value (from here on “% inhibition of Smad7 mRNA expression … Kidney”) (dog SMAD7 mRNA) was 0% and the “% inhibition of Smad7 mRNA expression (compared to control), Liver” value (shortened to “% inhibition of Smad7 mRNA expression … Liver”) (dog SMAD7 mRNA) was 0%. The “% inhibition of SMAD7 mRNA expression (compared to control), Proximal colon” value (shortened to “% inhibition … Proximal colon”) (dog SMAD7 mRNA) was 34%.

In the case of “830025 (antisense TTTGTAAATCGAAAGC; 3-10-3 cEt gapmer, further chemistry not given here) [compound 830025]”, the “% Inhibition” value (human SMAD7 mRNA; [6]) is reported as 62%, the ALT [1] is reported as 208 IU/L and the AST [1] is reported as 263 IU/L. For the same substance, the Albumin [1] was 2.5 g/dL, the BUN [1] was 25 mg/dL and the Eosinophils [2] was 3.8. It also gave a Hematocrit [2] of 38.7%, a Hemoglobin [2] of 12.5 g/dL and a Lymphocytes [2] of 83.2%. The MCH [2] was 15.7 pg, the MCHC [2] was 32.3 g/dL and the MCV [2] was 48.8 fL. For the same substance, the Monocytes [2] was 3.2, the Neutrophils [2] was 9.3% and the RBC [2] was 8.0. For the same substance, the Reticulocytes [2] was 3.3%, the WBC [2] was 4.8 10^3/μL and the platelets [2] was 805.0 10^3/μL. The Basophils [2] was 0.6 10^3/μL, the “Oligonucleotide concentration, Colon” value [3] was 3.6 µg/g and the “Oligonucleotide concentration, Duodenum” value [3] was 0.7 µg/g. For the same substance, the “Oligonucleotide concentration, Ileum” value [3] was 1.9 µg/g, the “Oligonucleotide concentration, Kidney” value [3] was 21.5 µg/g and the “Oligonucleotide concentration, Liver” value [3] was 2.3 µg/g. For the same substance, the Basophils [4] was 0.3%, the Eosinophils [4] was 2.4% and the Hematocrit [4] was 43%. It also gave a Hemoglobin [4] of 13.9 g/dL, a Lymphocytes [4] of 34% and an MCH [4] of 21.7 pg. For the same substance, the MCHC [4] was 32.5 g/dL, the MCV [4] was 67 fL and the Monocytes [4] was 8.2%. For the same substance, the Neutrophils [4] was 55%, the PLT [4] was 250 ^3/μL and the RBC [4] was 6.4 ^6/L. For the same substance, the Reticulocytes [4] was 1.2%, the WBC [4] was 5.7 ^3/μL and the “% inhibition … Distal colon” value (dog SMAD7 mRNA) was 3%. For the same substance, the “% inhibition of SMAD7 mRNA expression … Duodenum” value (dog SMAD7 mRNA) was 7%, the “% inhibition of SMAD7 mRNA expression … Ileum” value (dog SMAD7 mRNA) was 9% and the “% inhibition of Smad7 mRNA expression … Kidney” value (dog SMAD7 mRNA) was 25%. The “% inhibition of Smad7 mRNA expression … Liver” value (dog SMAD7 mRNA) was 0%, the “% inhibition … Proximal colon” value (dog SMAD7 mRNA) was 24% and the “ALT (% of control)” value [5] was 117 % of control. The “AST (% of control)” value [5] was 106 % of control, the “Albumin (% of control)” value [5] was 96 % of control and the “BUN (% of control)” value [5] was 93 % of control. The “Bilirubin (% of control)” value [5] was 96 % of control.

For “830037 (antisense CTATTGGCTGATCTGG; 3-10-3 cEt gapmer, further chemistry not given here) [compound 830037]”, the “% Inhibition” value (human SMAD7 mRNA; [6]) was 67%, the “Oligonucleotide concentration, Colon” value [3] was 4.8 µg/g and the “Oligonucleotide concentration, Duodenum” value [3] was 1.2 µg/g. For the same substance, the “Oligonucleotide concentration, Ileum” value [3] was 2.7 µg/g, the “Oligonucleotide concentration, Kidney” value [3] was 32.4 µg/g and the “Oligonucleotide concentration, Liver” value [3] was 3.9 µg/g. It also gave a Basophils [4] of 0.7%, an Eosinophils [4] of 2.6% and a Hematocrit [4] of 52%. For the same substance, the Hemoglobin [4] was 17.5 g/dL, the Lymphocytes [4] was 32% and the MCH [4] was 22.1 pg. It also gave an MCHC [4] of 33.6 g/dL, an MCV [4] of 66 fL and a Monocytes [4] of 8.0%. For the same substance, the Neutrophils [4] was 57%, the PLT [4] was 280 ^3/μL and the RBC [4] was 8.0 ^6/L. For the same substance, the Reticulocytes [4] was 0.3%, the WBC [4] was 8.5 ^3/μL and the “% inhibition … Distal colon” value (dog SMAD7 mRNA) was 22%. The “% inhibition of SMAD7 mRNA expression … Duodenum” value (dog SMAD7 mRNA) was 33%, the “% inhibition of SMAD7 mRNA expression … Ileum” value (dog SMAD7 mRNA) was 22% and the “% inhibition of Smad7 mRNA expression … Kidney” value (dog SMAD7 mRNA) was 40%. The “% inhibition of Smad7 mRNA expression … Liver” value (dog SMAD7 mRNA) was 0% and the “% inhibition … Proximal colon” value (dog SMAD7 mRNA) was 50%.

For “830121 (AGAATCAAGCCCTGGC; 3-10-3 cEt gapmer, further chemistry not given here) [compound 830121]”, the “% Inhibition” value (human SMAD7 mRNA; [6]) was 69%, the ALT [1] was 198 IU/L and the AST [1] was 151 IU/L. The Albumin [1] was 1.9 g/dL, the BUN [1] was 21 mg/dL and the Eosinophils [2] was 3.5. For the same substance, the Hematocrit [2] was 40.4%, the Hemoglobin [2] was 13.6 g/dL and the Lymphocytes [2] was 75.3%. For the same substance, the MCH [2] was 15.3 pg, the MCHC [2] was 33.6 g/dL and the MCV [2] was 45.5 fL. The Monocytes [2] was 5.1, the Neutrophils [2] was 15.8% and the RBC [2] was 8.9. For the same substance, the Reticulocytes [2] was 4.5%, the WBC [2] was 10.1 10^3/μL and the platelets [2] was 765.0 10^3/μL. For the same substance, the Basophils [2] was 0.3 10^3/μL, the “Oligonucleotide concentration, Colon” value [3] was 2.7 µg/g and the “Oligonucleotide concentration, Duodenum” value [3] was 0.4 µg/g. For the same substance, the “Oligonucleotide concentration, Ileum” value [3] was 1.1 µg/g, the “Oligonucleotide concentration, Kidney” value [3] was 13.2 µg/g and the “Oligonucleotide concentration, Liver” value [3] was 0.9 µg/g. For the same substance, the Basophils [4] was 0.8%, the Eosinophils [4] was 2.5% and the Hematocrit [4] was 56%. It also gave a Hemoglobin [4] of 18.5 g/dL, a Lymphocytes [4] of 30% and an MCH [4] of 21.7 pg. It also gave an MCHC [4] of 32.9 g/dL, an MCV [4] of 66 fL and a Monocytes [4] of 7.7%. For the same substance, the Neutrophils [4] was 59%, the PLT [4] was 249 ^3/μL and the RBC [4] was 8.5 ^6/L. The Reticulocytes [4] was 0.5%, the WBC [4] was 8.2 ^3/μL and the “% inhibition … Distal colon” value (dog SMAD7 mRNA) was 21%. The “% inhibition of SMAD7 mRNA expression … Duodenum” value (dog SMAD7 mRNA) was 55%, the “% inhibition of SMAD7 mRNA expression … Ileum” value (dog SMAD7 mRNA) was 0% and the “% inhibition of Smad7 mRNA expression … Kidney” value (dog SMAD7 mRNA) was 39%. The “% inhibition of Smad7 mRNA expression … Liver” value (dog SMAD7 mRNA) was 0% and the “% inhibition … Proximal colon” value (dog SMAD7 mRNA) was 20%.
